Like-named read-outs stand apart in the source and are kept apart here.
How the values were obtained:
MTT cytotoxicity assay = format: cell-based; details: African green monkey (Chlorocebus sp.), Vero cells (kidney), four days incubation, Table 4
Procedure: (§1) Aedes albopictus clone C6/36 cells were maintained to propagate the dengue virus type 2 (DENV 2); African green monkey ( Chlorocebus sp.) kidney Vero cells were grown for antiviral analysis. Both cells were grown in Eagle’s Minimum Essential Medium (EMEM) (Biowest LLC, Riverside, MO, USA) with 10% Fetal Bovine Serum (FBS) (Biowest LLC).
The 96-well plates were seeded with 100 µL of Vero cell suspension at a density of 1 × 10^5 cells / mL and the next day were treated with different dilutions of the synthesized compounds. Control wells were treated with only the vehicle media used to prepare the antiviral dilutions. Plates were incubated for four days at 37 °C. Following the addition of 15 μL of MTT (Sigma-Aldrich Corp., St. Louis, MO, USA) solution into each well, the plates were incubated at 37 °C for another 4 h. Subsequently, the medium was carefully aspirated from all the wells and 100 μL of DMSO was added to each well [26]. The optical density (OD) of the wells was measured at 570 nm using a 96-well plate reader (Tecan Group AG, Männedorf, Switzerland). The percentage cell viability was calculated against the untreated controls. Dose-response curves were plotted. Half maximal cytotoxic concentration (CC50) was calculated using Graph Pad Prism for Windows, Version 5 (GraphPad Software Inc., San Diego, CA, USA).

DENV 2 [1] = assay: Foci forming unit reduction assay (FFURA, secondary evaluation); format: cell-based, dengue virus type 2 (DENV 2); details: for Selectivity index CC50/IC50: CC50 (Vero, MTT) / IC50 (FFURA, DENV 2); for reduction in the number of foci: three different dilutions; for IC50: Dengue virus, 96 h, read-out: IC50 ± SE
Procedure: as §1
Antiviral activity was quantitatively validated by measuring the reduction in the number of DENV infectious foci after 4 days of treatment. DENV 2 infected Vero cells were treated with different antiviral dilutions supplemented with 2% FBS and 1.5% carboxymethyl cellulose (CMC). Virus foci were stained and visualized according to the published protocol. The number of foci was counted through stereomicroscope and virus titer was stated as foci forming unit (FFU). To calculate the antiviral activity of antidengue compounds, the percentage reduction in foci (%RF) was calculated between the treated, and untreated wells maintained in parallel. The assay was repeated three times, dose-response curves were plotted and half […] inhibitory concentration (IC50) and selectivity index (SI) were calculated.

DENV 2 [2] = assay: CPE reduction-based antiviral assay (primary evaluation); format: cell-based, dengue virus type 2 (DENV 2); parameters: key: ++++ for total reduction; +++ for 75% reduction; ++ for 50% reduction; + for less than 50% reduction; -- for no reduction; details: DENV 2-infected Vero cells, treated after 1 h viral adsorption, graded per Kudi and Myint
Procedure: as §1
Ribavirin tablets (Copegus, 200 mg, Genentech, Inc., South San Francisco, CA, USA) were purchased and stock solutions were stored. Dilutions were prepared in 2% FBS (maintenance media) at the time of assay. TCID50 assay was employed to measure the titer of the virus stocks for antiviral evaluation following standard methods. The viral CPE was observed on the third and fourth days and observations were recorded based on the Reed–Muench method.
Plates were seeded with Vero cell suspension (100 µL) at a density of 1 × 10^5 cells/mL one day before the wells were treated with TCID50 (100 µL) dilution of the DENV 2 stock and untreated control wells were maintained in parallel. After 1 h of viral adsorption, unbound viruses were washed and different antiviral dilutions were added. These plates were further incubated for 4 more days and were observed daily. Observations were recorded on the third and fourth days. The wells were marked for CPE reduction according to the grading system defined by Kudi and Myint.

[3] = DENV 2 infected Vero cells, foci reduction after 4 days of treatment

| SMILES | CC50 at 4 days (MTT cytotoxicity assay) [µM] | Selectivity index CC50/IC50 (DENV 2 [1]) | reduction in the number of foci (DENV 2 [1]; DENV 2 infected Vero cells) | IC50 (DENV 2 [1]; [3]) [µM] | CPE reduction (DENV 2 [2]) | IC50 (DENV 2 [1]; Vero) [µM] |
| --- | --- | --- | --- | --- | --- | --- |
| CC1(C)[C@@H]2CC[C@@]1(C)/C(=N/NC(=S)SCc1ccccc1)C2 [SBRCM, Benzyl (E)-2-((1R,4R)-1,7,7-trimethylbicyclo[2.2.1]heptan-2-ylidene)hydrazine-1-carbodithioate] | 81.7 ± 4.4 | 10.4 | reduction in the number of foci appearance | 7.8 ± 4.5 | ++ (++ for 50% reduction) |  |
| C=C(C)[C@@H]1CC=C(C)/C(=N/NC(=S)SCc2ccccc2)C1 [SBRCV, Benzyl (R,E)-2-(2-methyl-5-(prop-1-en-2-yl)cyclohex-2-en-1-ylidene)hydrazine-1-carbodithioate] | 28.5 ± 3.9 |  |  |  | + (+ for less than 50% reduction) |  |
| CC1(C)[C@H]2CC[C@]1(C)/C(=N/NC(=S)SCc1ccccc1)C2 [SBSCM, Benzyl (E)-2-((1S,4S)-1,7,7-trimethylbicyclo[2.2.1]heptan-2-ylidene)hydrazine-1-carbodithioate] | 87.2 ± 5.9 | 12.8 | reduction in the number of foci appearance | 6.8 ± 2.3 | ++ (++ for 50% reduction) |  |
| C=C(C)[C@H]1CC=C(C)/C(=N/NC(=S)SCc2ccccc2)C1 [SBSCV, Benzyl (S,E)-2-(2-methyl-5-(prop-1-en-2-yl)cyclohex-2-en-1-ylidene)hydrazine-1-carbodithioate] | 29.2 ± 6.4 |  |  |  | + (+ for less than 50% reduction) |  |
| CSC(=S)N/N=C1\C[C@H]2CC[C@]1(C)C2(C)C [SMRCM, Methyl (E)-2-((1R,4R)-1,7,7-trimethylbicyclo[2.2.1]heptan-2-ylidene)hydrazine-1-carbodithioate] | 88.4 ± 3.8 | 12.8 | reduction in the number of foci appearance | 6.9 ± 1.2 | ++ (++ for 50% reduction) |  |
| C=C(C)[C@@H]1CC=C(C)/C(=N/NC(=S)SC)C1 [SMRCV, Methyl (R,E)-2-(2-methyl-5-(prop-1-en-2-yl)cyclohex-2-en-1-ylidene)hydrazine-1-carbodithioate] | 31.1 ± 8 |  |  |  | -- |  |
| CSC(=S)N/N=C1\C[C@@H]2CC[C@@]1(C)C2(C)C [SMSCM, Methyl (E)-2-((1S,4S)-1,7,7-trimethylbicyclo[2.2.1]heptan-2-ylidene)hydrazine-1-carbodithioate] | 88.7 ± 2 | 14.3 | reduction in the number of foci appearance | 6.2 ± 3.2 | ++ (++ for 50% reduction) |  |
| CSC(=S)N/N=C1\C(=O)[C@@]2(C)CC[C@@H]1C2(C)C [SMSCQ, Methyl (Z)-2-((1R,4S)-4,7,7-trimethyl-3-oxobicyclo[2.2.1]heptan-2-ylidene)hydrazine-1-carbodithioate] | 69.2 ± 5.9 |  | reduction in the number of foci appearance |  | + (+ for less than 50% reduction) | 6.8 ± 2.8 |
| C=C(C)[C@H]1CC=C(C)/C(=N/NC(=S)SC)C1 [SMSCV, Methyl (S,E)-2-(2-methyl-5-(prop-1-en-2-yl)cyclohex-2-en-1-ylidene)hydrazine-1-carbodithioate] | 24.5 ± 9.2 |  |  |  | -- |  |

Reference: publication PMC7751940, “Synthesis, characterization and evaluation of antidengue activity of enantiomeric Schiff bases derived from S-substituted dithiocarbazate” (Turkish Journal of Chemistry, 2020)
